According to patent publication US20070208026A1, “N-Containing Heteroaromatic Compounds As Modulators Of Ppars And Methods Of Treating Metabolic Disorders” (priority 2003, published 2007):

Assays:
Assay in all cases: cell-based human PPAR-GAL4 chimera luciferase reporter assay in CV-1 cells
[1] = target: T1, hPPAR α (Homo sapiens, UniProt Q07869); conditions: PPAR LBD-GAL4 chimera, 24 hours treatment; for EC50: read-out: hPPAP α (EC50)
T1 construct: expressed in transfected cells; host or cells: CV-1 cells
T1 sequence (Q07869 239-466 limits assumed): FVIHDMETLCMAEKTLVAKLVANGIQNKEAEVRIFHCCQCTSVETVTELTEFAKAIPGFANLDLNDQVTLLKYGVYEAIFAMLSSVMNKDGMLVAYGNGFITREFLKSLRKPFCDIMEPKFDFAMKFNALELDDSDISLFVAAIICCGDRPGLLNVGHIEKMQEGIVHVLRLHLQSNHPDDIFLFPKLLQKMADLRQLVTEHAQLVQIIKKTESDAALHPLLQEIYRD
Protocol: (§1) The compounds were evaluated in a cell-based assay to determine their human PPAR activity (See Tables 2 and 3). The plasmids for human PPAR-GAL4 chimeras were prepared by fusing amplified cDNAs encoding the LBDs of PPARs to the C-terminal end of the yeast GAL4 DNA binding domain. CV-1 cells were grown and transiently tranfected with PerFectin (GTS, San Diego, Calif.) according to the manufacturer's protocol along with a luciferase reporter. Eight hours after transfection, 50 μl of cells were replated into 384 well plates ([…]). Sixteen hours after replating, cells were treated with either compounds or 1% DMSO for 24 hours. Luciferase activity was then assayed with Britelite (Perkin Elmer) following the manufacturer's protocol and measured with either the Perkin Elmer Viewlux or Molecular Devices Acquest.

[2] = target: T2, hPPAR γ (Homo sapiens, UniProt P37231); conditions: PPAR LBD-GAL4 chimera, 24 hours treatment
T2 construct: expressed in transfected cells; host or cells: CV-1 cells
T2 sequence (P37231 238-503 limits assumed): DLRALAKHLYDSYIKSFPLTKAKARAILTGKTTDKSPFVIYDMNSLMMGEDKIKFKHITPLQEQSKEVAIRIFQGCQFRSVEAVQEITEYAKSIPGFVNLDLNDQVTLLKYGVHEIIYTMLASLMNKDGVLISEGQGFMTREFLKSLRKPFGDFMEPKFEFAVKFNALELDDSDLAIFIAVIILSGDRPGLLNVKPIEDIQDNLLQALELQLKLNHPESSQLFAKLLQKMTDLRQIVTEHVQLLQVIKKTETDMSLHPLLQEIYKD
Protocol: as §1

[3] = target: T3, hPPAR δ (Homo sapiens, UniProt Q03181); conditions: PPAR LBD-GAL4 chimera, 24 hours treatment
T3 construct: expressed in transfected cells; host or cells: CV-1 cells
T3 sequence (Q03181 211-439 limits assumed): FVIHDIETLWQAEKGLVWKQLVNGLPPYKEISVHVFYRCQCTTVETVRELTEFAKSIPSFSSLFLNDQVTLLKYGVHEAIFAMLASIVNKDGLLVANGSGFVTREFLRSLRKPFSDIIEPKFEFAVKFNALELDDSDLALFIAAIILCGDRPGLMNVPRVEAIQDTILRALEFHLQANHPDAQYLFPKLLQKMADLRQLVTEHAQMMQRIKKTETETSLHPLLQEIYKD
Protocol: as §1

| SMILES | EC50 [1] | EC50 [2] | EC50 [3] | hPPAR δ (EC50) [3] | hPPAP α (EC50) [1] |
| --- | --- | --- | --- | --- | --- |
| CCCCN(CCCOc1cccc(C(=O)O)n1)c1ncc(CC)cn1 | 1 to 100 µM | < 1 µM | 1 to 100 µM | – | – |
| O=C(O)c1nc2ccccc2nc1OCCCN(Cc1ccc(C(F)(F)F)cc1)c1nc2ccccc2s1 | > 100 µM | > 100 µM | > 100 µM | – | – |
| CCCCN(CCCOc1nc2ccccc2nc1C(=O)O)c1nc2ccccc2s1 | > 100 µM | 1 to 100 µM | > 100 µM | – | – |
| CCCCN(CCCOc1cccc(C(=O)O)n1)c1nc2ccccc2o1 | 1 to 100 µM | < 1 µM | > 100 µM | – | – |
| CCCCN(CCCOc1ccc2[nH]cc(CC(=O)O)c2c1)c1ccccn1 | > 100 µM | 1 to 100 µM | > 100 µM | – | – |
| O=C(O)Cc1c[nH]c2ccc(OCCCN(Cc3ccc(C(F)(F)F)cc3C(F)(F)F)c3nc4ccccc4s3)cc12 | > 100 µM | < 1 µM | > 100 µM | – | – |
| CCCCN(CCCOc1cncc(C(=O)O)c1)c1ncc(CC)cn1 | > 100 µM | < 1 µM | > 100 µM | – | – |
| O=C(O)c1cncc(OCCCN(Cc2ccc(C(F)(F)F)cc2C(F)(F)F)c2ccccn2)c1 | 1 to 100 µM | < 1 µM | 1 to 100 µM | – | – |
| CCc1cnc(N(CCCOc2ccc3c(c2)c(CC(=O)O)cn3C)Cc2ccc(C(F)(F)F)cc2C(F)(F)F)nc1 | 1 to 100 µM | < 1 µM | – | B/C | – |
| CCCCN(CCCOc1nc2ccccc2nc1C(=O)O)c1nc2ccccc2o1 | > 100 µM | 1 to 100 µM | > 100 µM | – | – |
| O=C(O)c1nc2ccccc2nc1OCCCN(Cc1ccc(C(F)(F)F)cc1C(F)(F)F)c1ccccn1 | > 100 µM | < 1 µM | > 100 µM | – | – |
| CCc1cnc(N(CCCOc2cccc(C(=O)O)n2)Cc2ccc(C(F)(F)F)cc2C(F)(F)F)nc1 | – | < 1 µM | > 100 µM | – | A/B |
| CCc1cnc(N(CCCOc2ccc3[nH]cc(CC(=O)O)c3c2)Cc2ccc(C(F)(F)F)cc2C(F)(F)F)nc1 | > 100 µM | < 1 µM | 1 to 100 µM | – | – |
| CCCCN(CCCOc1ccc2[nH]cc(CC(=O)O)c2c1)c1nc2ccccc2o1 | > 100 µM | 1 to 100 µM | 1 to 100 µM | – | – |
| CCCCN(CCCOc1cncc(C(=O)O)c1)c1nc2ccccc2o1 | > 100 µM | 1 to 100 µM | > 100 µM | – | – |
| CCCCN(CCCOc1cncc(C(=O)O)c1)c1nc2ccccc2s1 | > 100 µM | < 1 µM | > 100 µM | – | – |
| O=C(O)c1cccc(OCCCN(Cc2ccc(C(F)(F)F)cc2C(F)(F)F)c2ccccn2)n1 | 1 to 100 µM | < 1 µM | > 100 µM | – | – |
| O=C(O)c1cncc(OCCCN(Cc2ccc(C(F)(F)F)cc2)c2nc3ccccc3s2)c1 | 1 to 100 µM | < 1 µM | > 100 µM | – | – |
| O=C(O)c1nc2ccccc2nc1OCCCN(Cc1ccc(C(F)(F)F)cc1C(F)(F)F)c1nc2ccccc2s1 | > 100 µM | < 1 µM | > 100 µM | – | – |

| SMILES | EC50 [1] | EC50 [2] | EC50 [3] | hPPAR δ (EC50) [3] | hPPAP α (EC50) [1] |
| --- | --- | --- | --- | --- | --- |
| CCCCN(CCCOc1cncc(C(=O)O)c1)c1ccccn1 | > 100 µM | 1 to 100 µM | > 100 µM | – | – |
| CCCCN(CCCOc1ccc2[nH]cc(CC(=O)O)c2c1)c1ncc(CC)cn1 | > 100 µM | 1 to 100 µM | > 100 µM | – | – |
| CCCCN(CCCOc1cccc(C(=O)O)n1)c1ccccn1 | > 100 µM | 1 to 100 µM | > 100 µM | – | – |
| O=C(O)c1cccc(OCCCN(Cc2ccc(C(F)(F)F)cc2C(F)(F)F)c2nc3ccccc3s2)n1 | < 1 µM | < 1 µM | > 100 µM | – | – |
| O=C(O)c1cccc(OCCCN(Cc2ccc(C(F)(F)F)cc2)c2nc3ccccc3s2)n1 | > 100 µM | < 1 µM | > 100 µM | – | – |
| CCCCN(CCCOc1nc2ccccc2nc1C(=O)O)c1ncc(CC)cn1 | > 100 µM | 1 to 100 µM | 1 to 100 µM | – | – |
| CCCCN(CCCOc1ccc2[nH]cc(CC(=O)O)c2c1)c1nc2ccccc2s1 | > 100 µM | 1 to 100 µM | 1 to 100 µM | – | – |
| O=C(O)Cc1c[nH]c2ccc(OCCCN(Cc3ccc(C(F)(F)F)cc3C(F)(F)F)c3ccccn3)cc12 | > 100 µM | < 1 µM | 1 to 100 µM | – | – |
| O=C(O)c1cncc(OCCCN(Cc2ccc(C(F)(F)F)cc2C(F)(F)F)c2nc3ccccc3s2)c1 | > 100 µM | 1 to 100 µM | > 100 µM | – | – |
| CCc1cnc(N(CCCOc2ncc(C(=O)O)cc2Cl)Cc2ccc(C(F)(F)F)cc2C(F)(F)F)nc1 | > 100 µM | < 1 µM | > 100 µM | – | – |
| CCc1cnc(N(CCCOc2cncc(C(=O)O)c2)Cc2ccc(C(F)(F)F)cc2C(F)(F)F)nc1 | – | < 1 µM | 1 to 100 µM | – | B/C |
| CCCCN(CCCOc1nc2ccccc2nc1C(=O)O)c1ccccn1 | > 100 µM | 1 to 100 µM | > 100 µM | – | – |
| O=C(O)c1cccc(OCCCN(Cc2ccc(C(F)(F)F)cc2C(F)(F)F)c2nc3ccccc3o2)n1 | < 1 µM | > 100 µM | > 100 µM | – | – |
| O=C(O)c1cncc(OCCCN(Cc2ccc(C(F)(F)F)cc2C(F)(F)F)c2nc3ccccc3o2)c1 | > 100 µM | 1 to 100 µM | > 100 µM | – | – |
| CCc1cnc(N(CCCOc2cccc3ccc(C(=O)O)nc23)Cc2ccc(C(F)(F)F)cc2C(F)(F)F)nc1 | > 100 µM | 1 to 100 µM | > 100 µM | – | – |
| CCc1cnc(N(CCCOc2nc3ccccc3nc2C(=O)O)Cc2ccc(C(F)(F)F)cc2C(F)(F)F)nc1 | > 100 µM | < 1 µM | > 100 µM | – | – |
| O=C(O)Cc1c[nH]c2ccc(OCCCN(Cc3ccc(C(F)(F)F)cc3C(F)(F)F)c3nc4ccccc4o3)cc12 | > 100 µM | < 1 µM | < 1 µM | – | – |
| CCCCN(CCCOc1cccc(C(=O)O)n1)c1nc2ccccc2s1 | > 100 µM | 1 to 100 µM | > 100 µM | – | – |
| O=C(O)c1nc2ccccc2nc1OCCCN(Cc1ccc(C(F)(F)F)cc1C(F)(F)F)c1nc2ccccc2o1 | > 100 µM | < 1 µM | > 100 µM | – | – |
